Results on 59 compounds are retold here after patent US20220298138A1, “ENZYME INHIBITORS” (KALVISTA PHARMACEUTICALS LIMITED, priority 2019, published 2022).

The structures appear in SMILES notation.

The target of this experiment is T1, Human Factor XIIa (Homo sapiens, UniProt P00748).
T1 construct: purchased Enzyme Research Laboratories
T1 sequence (P00748 373-615 limits assumed): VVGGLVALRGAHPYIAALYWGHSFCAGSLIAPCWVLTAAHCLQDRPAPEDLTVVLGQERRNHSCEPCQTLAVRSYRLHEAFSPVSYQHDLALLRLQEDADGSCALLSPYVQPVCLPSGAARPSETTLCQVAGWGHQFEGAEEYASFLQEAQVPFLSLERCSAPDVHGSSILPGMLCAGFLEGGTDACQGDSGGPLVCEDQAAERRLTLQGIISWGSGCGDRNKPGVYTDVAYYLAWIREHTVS
Put plainly: Factor XIIa inhibitory activity in vitro (fluorogenic substrate H-DPro-Phe-Arg-AFC). As to conditions: 25° C., class symbols, read-out: Human FXIIa IC50. It counts as biochemical. The essentials:
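Enzyme incubated at 25° C with fluorogenic substrate H-DPro-Phe-Arg-AFC and a range of compound concentrations. Residual activity taken as initial reaction rate from […], giving IC50.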
As a reminder, the IC50 is the concentration at which inhibition is half-maximal. As for `Cc1nc2ccccc2n1CCC(=O)N[C@@H](Cc1ccc(F)c(F)c1)C(=O)NCc1ccc2c(N)nccc2c1` [Example 20.06], the IC50 lay in the range of 10 to 40 µM.

As for `C[C@@H]1CCC[C@H](C)N1C(=O)N[C@H](CC(=O)NCc1ccc2c(N)nccc2c1)Cc1ccccc1` [Example 39.07], the IC50 was in the range of 10 to 40 µM. Then `CC(C)N1CCC[C@@H]1C(=O)N[C@@H](Cc1ccc(F)c(F)c1)C(=O)NC1CCN(c2ccncc2)CC1` [Example 44.02], with 10 to 40 µM; and `CN[C@H](CCc1ccccc1)C(=O)N[C@@H](Cc1ccccc1)C(=O)NCc1ccc2c(N)nccc2c1` [Example 6.08], with 3 to 10 µM. Under `CC(C)N[C@H](CCc1ccccc1)C(=O)N[C@@H](C)C(=O)NCc1ccnc(N)c1` [Example 9.09] stands 3 to 10 µM; under `C[C@H](NC(=O)[C@@H](CCc1ccccc1)NCC(C)(C)C)C(=O)NCc1ccc2[nH]cc(Cl)c2c1` [Example 9.18], 0.28 to 1 µM; under `C[C@@H]1CCC[C@H](C)N1CC(=O)N[C@@H](Cc1ccc(F)cc1)C(=O)NCc1ccc2c(N)nccc2c1` [Example 3.14], 0.1 to 0.279 µM. For the compound `CC(C)c1cc(C(=O)N[C@@H](Cc2ccc(F)c(F)c2)C(=O)NCc2ccc3c(N)nccc3c2)n(C)n1` [Example 0.90], the IC50 lay in the range of 10 to 40 µM. Then `CN1CCC(C(=O)N[C@@H](Cc2ccc(F)c(F)c2)C(=O)NCc2ccc3c(N)nccc3c2)CC1` [Example 0.43], with 3 to 10 µM; and `Nc1nccc2cc(CNC(=O)[C@H](Cc3ccc(F)c(F)c3)NC(=O)CCNC(=O)c3ccc(F)cc3)ccc12` [Example 20.09], with 10 to 40 µM; and `Cc1nn(C)c(C)c1CCC(=O)N[C@@H](Cc1ccc(F)c(F)c1)C(=O)NCc1ccc2c(N)nccc2c1` [Example 20.08], with 10 to 40 µM.

Regarding `Nc1nccc2cc(CNC(=O)[C@H](Cc3ccc(F)c(F)c3)NC(=O)CN3CCCCCC3)ccc12` [Example 3.38], the IC50 lay within 1 to 3 µM. Under `Nc1nccc2cc(CNC(=O)[C@H](Cc3ccc(F)c(F)c3)NC(=O)c3cccc(N4CCCC4=O)c3)ccc12` [Example 0.81] stands 3 to 10 µM; under `C[C@@H]1CCC[C@H](C)N1CC(=O)N[C@@H](Cc1ccc(F)c(F)c1)C(=O)NCc1ccc2c(N)n[nH]c2c1` [Example 3.104, (2S)—N-[(3-amino-1H-indazol-6-yl)methyl]-3-(3,4-difluorophenyl)-2-{2-[(2R,6S)-2,6-dimethylpiperidin-1-yl]acetamido}propanamide], 10 to 40 µM; under `Cn1nc(C(C)(C)C)cc1C(=O)N[C@@H](Cc1ccc(F)c(F)c1)C(=O)NCc1ccc2c(N)nccc2c1` [Example 0.88], 10 to 40 µM.

In the case of `Cc1ccnn1CCC(=O)N[C@@H](Cc1ccc(F)c(F)c1)C(=O)NCc1ccc2c(N)nccc2c1` [Example 20.03], the IC50 lay in the range of 10 to 40 µM.

For `C[C@@H]1CCC[C@H](C)N1CC(=O)N[C@@H](Cc1ccc(F)c(F)c1)C(=O)NCc1ccc2[nH]ccc2c1` [Example 34.05], the IC50 lay in the range of 10 to 40 µM. Under `CC(C)N(C)[C@H](C)C(=O)N[C@@H](Cc1ccc(F)c(F)c1)C(=O)NCc1ccc2c(N)nccc2c1` [Example 5.102] stands 0.28 to 1 µM; under `Cc1nccn1CCC(=O)N[C@@H](Cc1ccc(F)c(F)c1)C(=O)NCc1ccc2c(N)nccc2c1` [Example 3.31], 3 to 10 µM. Then `CC(C)c1ncc(C(=O)N[C@@H](Cc2ccc(F)c(F)c2)C(=O)NCc2ccc3c(N)nccc3c2)cn1` [Example 0.92], with 3 to 10 µM; and `COc1ccc(CNC(=O)[C@H](C)NC(=O)[C@@H](CCc2ccccc2)NC(C)C)cc1Cl` [Example 9.11], with 10 to 40 µM.

For `Nc1nccc2cc(CNC(=O)[C@@H]3CCCCN3C(=O)[C@H](N)CCc3ccccc3)ccc12` [Example 17.03], the IC50 lay within 1 to 3 µM. Under `CC(C)N[C@H](CCc1ccccc1)C(=O)N[C@@H](C)C(=O)NCC1CNc2ccc(Cl)cc2O1` (some centres unmarked) [Example 9.20] stands 10 to 40 µM; under `CC[C@H](NC(=O)CN1[C@H](C)CCC[C@@H]1C)C(=O)NCc1ccc2c(N)nccc2c1` [Example 3.22], 3 to 10 µM.

For `C[C@@H]1CCC[C@H](C)N1CC(=O)N1c2ccccc2C[C@H]1C(=O)NCc1ccc2c(N)nccc2c1` [Example 32.04], the IC50 was in the range of 10 to 40 µM. Take `Nc1nccc2cc(CNC(=O)[C@@H](N)Cc3csc4ccccc34)ccc12` [Example 24.01]: the IC50 was in the range of 10 to 40 µM. Then `Nc1nccc2cc(CNC(=O)[C@H](Cc3ccc(F)c(F)c3)NC(=O)CCc3ccccc3)ccc12` [Example 0.46], with 10 to 40 µM; and `C[C@@H]1CC[C@H](C)N1CC(=O)N[C@@H](Cc1ccc(F)c(F)c1)C(=O)NCc1ccc2c(N)nccc2c1` [Example 3.20], with 0.28 to 1 µM. On to `CC1CCCC(C)N1CC(=O)N[C@@H](Cc1ccc(F)c(F)c1)C(=O)NCc1cnc2[nH]cc(Cl)c2c1` (some centres unmarked) [Example 3.101], for which the IC50 lay in the range of 1 to 3 µM.

Take `COc1ncccc1C(=O)N[C@@H](Cc1ccc(F)c(F)c1)C(=O)NCc1ccc2c(N)nccc2c1` [Example 0.42]: the IC50 lay in the range of 10 to 40 µM.

Turning to `Nc1nccc2cc(CNC(=O)[C@H](Cc3ccc(F)c(F)c3)NC(=O)CN3CCOc4ccccc4C3)ccc12` [Example 3.33], the IC50 lay within 10 to 40 µM. For `Cc1cc(C)c(C(=O)N[C@@H](Cc2ccc(F)c(F)c2)C(=O)NCc2ccc3c(N)nccc3c2)[nH]1` [Example 0.01], the IC50 lay within 3 to 10 µM.

With `Cc1nc2ccncc2cc1C(=O)N[C@@H](Cc1ccc(F)c(F)c1)C(=O)NCc1ccc2c(N)nccc2c1` [Example 0.26], the IC50 lay within 10 to 40 µM. Under `COc1cc(C(=O)N[C@@H](Cc2ccc(F)c(F)c2)C(=O)NCc2ccc3c(N)nccc3c2)ccc1F` [Example 0.58] stands 3 to 10 µM; under `Nc1nccc2cc(CNC(=O)[C@H](Cc3ccc(F)c(F)c3)NC(=O)c3ccccc3)ccc12` [Example 0.34], 10 to 40 µM.

Turning to `C[C@@H]1CCC[C@H](C)N1CC(=O)N[C@@H](Cc1ccc(F)c(F)c1)C(=O)NCc1ccnc(N)c1` [Example 34.04], the IC50 fell in the range of 10 to 40 µM. Under `CC(OCc1ccccc1)[C@H](NC(=O)CN1[C@H](C)CCC[C@@H]1C)C(=O)NCc1ccc2c(N)nccc2c1` (some centres unmarked) [Example 39.05] stands 3 to 10 µM.

Regarding `Cc1ccc(C)c(S(=O)(=O)NCC(=O)N[C@@H](Cc2ccc(F)c(F)c2)C(=O)NCc2ccc3c(N)nccc3c2)c1` [Example 55.05], the IC50 was 1 to 3 µM. Regarding `N#Cc1ccc(C(=O)N[C@@H](Cc2ccc(F)c(F)c2)C(=O)NCc2ccc3c(N)nccc3c2)nc1` [Example 0.11], the IC50 is 10 to 40 µM. As to `CC(C)c1nc(C(=O)N[C@@H](Cc2ccc(F)c(F)c2)C(=O)NCc2ccc3c(N)nccc3c2)cs1` [Example 0.91], the IC50 is 10 to 40 µM.

For `Nc1nccc2cc(CNC(=O)[C@H](Cc3ccc(F)c(F)c3)NC(=O)c3cncnc3)ccc12` [Example 0.20], the IC50 was 3 to 10 µM. Under `C[C@@H]1CCC[C@H](C)N1[C@H](C)C(=O)N[C@@H](Cc1ccc(F)c(F)c1)C(=O)NCc1ccc2c(N)nccc2c1` [Example 5.105] stands 0.28 to 1 µM; under `C[C@@H]1CCC[C@H](C)N1CC(=O)N1c2ccccc2CC[C@H]1C(=O)NCc1ccc2c(N)nccc2c1` [Example 32.09], 10 to 40 µM; under `Cc1cc2ncc(C(=O)N[C@@H](Cc3ccc(F)c(F)c3)C(=O)NCc3ccc4c(N)nccc4c3)c(C)n2n1` [Example 0.36], 3 to 10 µM.

As for `Nc1nccc2cc(CNC(=O)[C@H](Cc3ccc(F)c(F)c3)NC(=O)c3ccc4ncccc4n3)ccc12` [Example 0.31], the IC50 was 10 to 40 µM. Under `C[C@H](NC(=O)[C@@H](CCc1ccccc1)NCc1ccccc1)C(=O)NCc1ccc2[nH]cc(Cl)c2c1` [Example 9.25] stands 1 to 3 µM; under `Nc1nccc2cc(CNC(=O)[C@H](Cc3ccc(F)c(F)c3)NC(=O)CCc3[nH]nc4c3CCCC4)ccc12` [Example 20.10], 10 to 40 µM. Then `CC(C)N1CCC[C@@H]1C(=O)N[C@@H](Cc1ccc(F)c(F)c1)C(=O)NCc1ccc2c(cnn2C)c1` [Example 44.06], with 10 to 40 µM; and `C[C@@H]1CCC[C@H](C)N1CC(=O)N[C@@H](Cc1ccc(F)c(F)c1)C(=O)NCc1cccc2[nH]ccc12` [Example 34.03], with 3 to 10 µM; and `Cc1nc(C(=O)N[C@@H](Cc2ccc(F)c(F)c2)C(=O)NCc2ccc3c(N)nccc3c2)c(C)o1` [Example 0.06], with 10 to 40 µM.

Regarding `Nc1nccc2cc(CNC(=O)[C@H](Cc3ccc(F)c(F)c3)NC(=O)c3ccc(F)c(F)c3)ccc12` [Example 0.49], the IC50 was 10 to 40 µM. Then `Nc1nccc2cc(CNC(=O)[C@H](Cc3ccc(F)c(F)c3)NC(=O)c3ccco3)ccc12` [Example 0.78], with 3 to 10 µM. Under `C[C@H](NC(=O)CN1[C@H](C)CCC[C@@H]1C)C(=O)NCc1ccc2c(N)nccc2c1` [Example 39.02] stands 3 to 10 µM; under `COc1cncc(C(=O)N[C@@H](Cc2ccc(F)c(F)c2)C(=O)NCc2ccc3c(N)nccc3c2)c1` [Example 0.12], 3 to 10 µM. `CC(C)c1cc(C(=O)N[C@@H](Cc2ccc(F)c(F)c2)C(=O)NCc2ccc3c(N)nccc3c2)ncn1` [Example 0.87]: the IC50 was in the range of 0.28 to 1 µM. Under `CS(=O)(=O)c1cccc(CC(=O)N[C@@H](Cc2ccc(F)c(F)c2)C(=O)NCc2ccc3c(N)nccc3c2)c1` [Example 3.24] stands 3 to 10 µM; under `Nc1nccc2cc(CNC(=O)[C@H](Cc3ccc(F)c(F)c3)NC(=O)c3ccncn3)ccc12` [Example 0.71], 3 to 10 µM. Take `N#Cc1cccc(CC(=O)N[C@@H](Cc2ccc(F)c(F)c2)C(=O)NCc2ccc3c(N)nccc3c2)c1` [Example 3.25]: the IC50 was 10 to 40 µM. `C[C@@H](C(=O)N[C@@H](Cc1ccc(F)c(F)c1)C(=O)NCc1ccc2c(N)nccc2c1)N(C)C` [Example 5.104]: the IC50 lay in the range of 10 to 40 µM.
